Laboratory results from patent publication US20070049593A1 (priority 2004, published 2007).
Counter-ions that a name gives are not always drawn.

The compounds below were run against T1, HCV polymerase (Hepatitis C virus genotype 1b, UniProt P26663) (assay: biochemical).
T1 construct: a region encoding NS5B (J Virol 1991 March, 65(3), 1105-13, 544 amino acids after deletion of 47 amino acids on the C-terminal); 6xHis (C); made in house; host or cells: Escherichia coli
T1 sequence (P26663 2420-2963): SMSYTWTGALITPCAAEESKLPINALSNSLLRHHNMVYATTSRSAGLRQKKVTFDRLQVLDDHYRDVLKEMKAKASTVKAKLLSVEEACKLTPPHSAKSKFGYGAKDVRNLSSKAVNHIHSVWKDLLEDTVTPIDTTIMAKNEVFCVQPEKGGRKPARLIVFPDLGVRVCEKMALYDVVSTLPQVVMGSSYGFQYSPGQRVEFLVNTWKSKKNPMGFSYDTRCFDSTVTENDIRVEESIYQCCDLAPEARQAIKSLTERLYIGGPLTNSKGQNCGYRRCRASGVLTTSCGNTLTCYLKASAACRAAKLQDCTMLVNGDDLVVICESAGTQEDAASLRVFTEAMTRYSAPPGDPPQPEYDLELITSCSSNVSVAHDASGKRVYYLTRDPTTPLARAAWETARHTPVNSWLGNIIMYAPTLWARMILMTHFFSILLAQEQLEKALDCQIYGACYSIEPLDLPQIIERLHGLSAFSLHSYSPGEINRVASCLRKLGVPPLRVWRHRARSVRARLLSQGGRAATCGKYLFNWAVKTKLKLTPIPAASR
Parameters: species or system HCV BK strain
How it was run: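 Recombinant HCV BK-strain NS5B (C-terminal 47 aa deleted, His6-tagged, E. coli), 0.5 μg/ml, run with 5 μg/ml in vitro-transcribed RNA template (polyU/3′X), ATP/GTP/CTP 50 μM, UTP 2 μM plus [3H]UTP, pH 7.5, 25° C, 90 min. TCA-precipitated RNA counted by scintillation; IC50 from activity with vs without compound.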
For `CCC1CCCCN1CCCN1CCn2c(c(C3CCCCC3)c3ccc(C(=O)O)cc32)-c2ccc(Cl)cc21` (stereo not shown) [Example 1-353, 3-chloro-13-cyclohexyl-5-[3-(2-ethylpiperidin-1-yl)propyl]-6,7-dihydro-5H-benzo[5,6][1,4]diazepino[7,1-a]indole-10-carboxylic acid dihydrochloride], the IC50 was less than 100 nM.
Compound `CCCc1ccc2c(c1)N(CCC1CCCN(C(C)C)C1)CCn1c-2c(C2CCCCC2)c2ccc(C(=O)O)cc21` (stereo not shown) [Example 1-354, 13-cyclohexyl-5-[2-(1-isopropylpiperidin-3-yl)ethyl]-3-propyl-6,7-dihydro-5H-benzo[5,6][1,4]diazepino[7,1-a]indole-10-carboxylic acid dihydrochloride] has an IC50 of less than 100 nM.
`COCC1CCCCN1CCCN1CCn2c(c(C3CCCCC3)c3ccc(C(=O)O)cc32)-c2ccc(Cl)cc21` (stereo not shown) [Example 1-355, 3-chloro-13-cyclohexyl-5-[3-(2-methoxymethylpiperidin-1-yl)propyl]-6,7-dihydro-5H-benzo[5,6][1,4]diazepino[7,1-a]indole-10-carboxylic acid dihydrochloride] was tested, and the IC50 was less than 100 nM.
`CCCc1ccc2c(c1)N(CCN1CCCC(C)C1)CCn1c-2c(C2CCCCC2)c2ccc(C(=O)O)cc21` (stereo not shown) [Example 1-356, 13-cyclohexyl-5-[2-(3-methylpiperidin-1-yl)ethyl]-3-propyl-6,7-dihydro-5H-benzo[5,6][1,4]diazepino[7,1-a]indole-10-carboxylic acid dihydrochloride] gave an IC50 of less than 100 nM.
In the case of `CCCc1ccc2c(c1)N(CCN1CCCC(CC)C1)CCn1c-2c(C2CCCCC2)c2ccc(C(=O)O)cc21` (stereo not shown) [Example 1-357, 13-cyclohexyl-5-[2-(3-ethylpiperidin-1-yl)ethyl]-3-propyl-6,7-dihydro-5H-benzo[5,6][1,4]diazepino[7,1-a]indole-10-carboxylic acid dihydrochloride], the IC50 is reported as less than 100 nM.
Compound `COCC1CCCN(CCN2CCn3c(c(C4CCCCC4)c4ccc(C(=O)O)cc43)-c3ccc(OCc4ccccc4)cc32)C1` (stereo not shown) [Example 1-358, 3-benzyloxy-13-cyclohexyl-5-[2-(3-methoxymethylpiperidin-1-yl)ethyl]-6,7-dihydro-5H-benzo[5,6][1,4]diazepino[7,1-a]indole-10-carboxylic acid dihydrochloride] has an IC50 of less than 100 nM.
`CC(C)c1ccc2c(c1)N(CCN1CCCC1)CCn1c-2c(C2CCCCC2)c2ccc(C(=O)O)cc21` [Example 1-359, 13-cyclohexyl-3-isopropyl-5-[2-(pyrrolidin-1-yl)ethyl]-6,7-dihydro-5H-benzo[5,6][1,4]diazepino[7,1-a]indole-10-carboxylic acid monohydrochloride] was tested, and the IC50 was less than 100 nM.
In the case of `CCc1ccc2c(c1)N(CCN1CCCC1)CCn1c-2c(C2CCCCC2)c2ccc(C(=O)O)cc21` [Example 1-360, 13-cyclohexyl-3-ethyl-5-[2-(pyrrolidin-1-yl)ethyl]-6,7-dihydro-5H-benzo[5,6][1,4]diazepino[7,1-a]indole-10-carboxylic acid monohydrochloride], the IC50 is reported as less than 100 nM.
In the case of `CC1CCCN(CCN2CCn3c(c(C4CCCCC4)c4ccc(C(=O)O)cc43)-c3ccc(OCc4ccccc4)cc32)C1` (stereo not shown) [Example 1-361, 3-benzyloxy-13-cyclohexyl-5-[2-(3-methylpiperidin-1-yl)ethyl]-6,7-dihydro-5H-benzo[5,6][1,4]diazepino[7,1-a]indole-10-carboxylic acid dihydrochloride], the IC50 is reported as less than 100 nM.
In the case of `CC(C)N1CCCC(CCN2CCn3c(c(C4CCCCC4)c4ccc(C(=O)O)cc43)-c3ccc(OCc4ccccc4)cc32)C1` (stereo not shown) [Example 1-362, 3-benzyloxy-13-cyclohexyl-5-[2-(1-isopropylpiperidin-3-yl)ethyl]-6,7-dihydro-5H-benzo[5,6][1,4]diazepino[7,1-a]indole-10-carboxylic acid dihydrochloride], the IC50 is reported as less than 100 nM.
